The test deals with Cut2 (cutinase 2) (Pyricularia oryzae, UniProt G4MZV6). The note with it: 12.5 nM Cut2, 0-8 mM substrate; assay buffer 25 mM NaH2PO4, pH 7.2.

Molecules are shown by their SMILES.

Experimental findings from publication PMC4855151 (Scientific Reports, 2016) are described below.

Chain of Cut2 (cutinase 2) (G4MZV6 19-214 limits assumed): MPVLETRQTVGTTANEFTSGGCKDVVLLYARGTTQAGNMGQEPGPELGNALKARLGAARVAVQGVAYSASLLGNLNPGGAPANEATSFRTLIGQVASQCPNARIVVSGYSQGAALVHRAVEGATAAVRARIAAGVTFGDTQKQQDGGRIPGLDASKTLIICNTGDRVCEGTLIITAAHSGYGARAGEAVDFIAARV

Turning to `CCCC(=O)Oc1ccc([N+](=O)[O-])cc1` [p-nitrophenyl butyrate], the kcat/Km entry is given as “We determined kcat/Km for our recombinant Cut2 with p-nitrophenylbutyrate as substrate”.
